Assay results published in patent publication US5723468A, “6-membered ring fused imidazoles as muscarinic agents” (priority 1996, dated 1998).

Key:
[1] = molecular target: T1, M1 acetylcholine receptors (ml receptors in CHO cells) (Homo sapiens, UniProt P11229); experiment: stimulation of phosphoinositide (PI) hydrolysis in transfected CHO cells; type: cell-based; conditions: 1 h, read-out: % PI Hydrolysis ml receptors in CHO cells 30 × Ki (μM), carb = 100%
T1 sequence (P11229 1-460): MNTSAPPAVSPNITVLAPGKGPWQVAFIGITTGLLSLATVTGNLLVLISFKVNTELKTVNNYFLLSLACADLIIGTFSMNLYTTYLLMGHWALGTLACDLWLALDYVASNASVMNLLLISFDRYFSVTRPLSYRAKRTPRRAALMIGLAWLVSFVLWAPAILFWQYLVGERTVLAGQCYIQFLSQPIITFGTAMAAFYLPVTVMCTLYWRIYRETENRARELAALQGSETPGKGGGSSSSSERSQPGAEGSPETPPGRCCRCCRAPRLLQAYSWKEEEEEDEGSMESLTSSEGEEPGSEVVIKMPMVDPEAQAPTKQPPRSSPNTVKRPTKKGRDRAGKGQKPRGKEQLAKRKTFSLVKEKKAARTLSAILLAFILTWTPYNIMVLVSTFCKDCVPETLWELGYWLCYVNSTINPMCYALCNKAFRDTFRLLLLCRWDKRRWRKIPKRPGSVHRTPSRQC

[2] = system: mild to moderate Alzheimer's Disease; conditions: cited from earlier work; for improvement in memory: patients with mild to moderate Alzheimer's Disease

Structure (SMILES)	Emax [1] [%]	adverse side effects ([2]; especially at the higher doses where it is most effective)	improvement in memory [2]
c1ccc(Cn2cnc3c(OC4CN5CCC4CC5)nccc32)cc1 (stereo not shown) [Example 5, 3-(1-Benzyl-1H-imidazo[4,5-c]pyridin-4-yloxy)-1-aza-bicyclo[2,2,2]octane]	6.8		
Cn1cnc2c(O[C@@H]3CN4CC[C@H]3C4)nccc21 (single isomer, unassigned) [Example 3, (-)-endo-4-(1-Aza-bicyclo[2.2.1]hept-3-yloxy)-1methyl-1H-imidazol[4,5-c]pyridine]	20.6		
c1ccc(Cn2cnc3c(OC4CN5CCC4CC5)nccc32)cc1 (single isomer, unassigned; (-)) [Example 7, (-)-3-(1-Benzyl-1H-imidazol[4,5-c]pyridin-4-yloxy)-1-aza-bicyclo[2,2,2]octane]	18.4		
Cn1cnc2c(O[C@@H]3CN4CC[C@H]3C4)nccc21 (relative stereo) [Example 1, endo-4-(1-Aza-bicyclo[2.2.1]hept-3-yloxy)-1-methyl-1H-imidazol[4,5-c]pyridine]	25		
Nc1c2c(nc3ccccc13)CCCC2 [tacrine]		adverse side effects especially at the higher doses	improvement in memory can be shown in patients with mild to moderate Alzheimer's Disease
COC(=O)C1=CCCN(C)C1 [arecoline]			demonstrated memory improvement in patients with mild to moderate Alzheimer's Disease
